# Data: patent US10329289B2, “6,7-dihydro-5H-pyrrolo[3,4-B]pyridin-5-one allosteric modulators of the M4 muscarinic acetylcholine receptor” (Merck Sharp & Dohme Corp., priority 2015, dated 2019)
# Target: T1, human M4 muscarinic acetylcholine receptor (Homo sapiens, UniProt P08173)
# T1 construct: expressed in transfected cells; host or cells: CHO-K1
# T1 sequence (P08173 1-479): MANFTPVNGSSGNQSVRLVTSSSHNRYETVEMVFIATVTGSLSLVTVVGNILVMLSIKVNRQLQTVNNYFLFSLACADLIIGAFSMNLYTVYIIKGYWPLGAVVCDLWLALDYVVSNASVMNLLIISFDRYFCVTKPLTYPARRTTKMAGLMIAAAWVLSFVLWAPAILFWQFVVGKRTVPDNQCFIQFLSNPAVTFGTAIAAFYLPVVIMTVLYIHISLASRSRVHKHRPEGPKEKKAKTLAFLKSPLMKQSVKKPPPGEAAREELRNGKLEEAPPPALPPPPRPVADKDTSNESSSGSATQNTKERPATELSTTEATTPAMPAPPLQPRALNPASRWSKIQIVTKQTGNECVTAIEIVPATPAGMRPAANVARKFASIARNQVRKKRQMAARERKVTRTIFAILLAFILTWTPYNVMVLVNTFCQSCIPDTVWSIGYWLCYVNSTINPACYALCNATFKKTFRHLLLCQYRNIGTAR
# Assay: human FLIPR-based M4 PAM assay (Ca2+ mobilization, CHO-K1 cells with human M4 receptor and Gαqi5)
# Assay type: cell-based
# Conditions: acetylcholine at 20% of maximum response, read-out: M4 PAM IP
# Outline: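 Calcium-mobilization (FLIPR) readout in dye-loaded CHO-K1 cells co-expressing human M4 receptor and Gαqi5. Potentiation measured against acetylcholine at a concentration giving 20% of maximal response, with an optional 70% addition; the reported value is the curve inflection point from a 4-parameter logistic fit.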
row,Structure (SMILES),EC50
1,"Cc1cc2c(nc1N1CCC(OCC3(C)CC3)CC1)[C@@H](CO)N(C)C2=O [Example 339, (S)-7-(hydroxymethyl)-3,6-dimethyl-2-(4-((1-methylcyclopropyl)methoxy)piperidin-1-yl)-6,7-dihydro-5H-pyrrolo[3,4-b]pyridin-5-one]",13 nM
2,"Cc1cc2c(nc1N1CCC(OCC3(C)CC3)CC1)CN(C)C2=O [Example 338, 3,6-dimethyl-2-(4-((1-methylcyclopropyl)methoxy)piperidin-1-yl)-6,7-dihydro-5H-pyrrolo[3,4-b]pyridin-5-one]",40 nM
3,"COc1ccc(OC2CCN(c3nc4c(cc3C)C(=O)NC4)CC2)cn1 [Example 1, 2-(4-((6-methoxypyridin-3-yl)oxy)piperidin-1-yl)-3-methyl-6,7-dihydro-5H-pyrrolo[3,4-b]pyridin-5-one]",27 nM
4,"Cc1c(N2CCC(Oc3ccc4c(c3)COC4)CC2)nc2c(c1C)C(=O)N(CCO)C2 [Example 264A, 2-(4-((1,3-Dihydro-2-benzofuran-5-yl)oxy)piperidin-1-yl)-6-(2-hydroxyethyl)-3,4-dimethyl-6,7-dihydro-5H-pyrrolo[3,4-b]pyridin-5-one]",38 nM
5,"CCc1cc2c(nc1N1CCC(Oc3ccc4c(c3)COCC4)CC1)[C@@H](CO)N(C)C2=O [Example 361, (S)-3-ethyl-7-(hydroxymethyl)-2-(4-(isochroman-7-yloxy)piperidin-1-yl)-6-methyl-6,7-dihydro-5H-pyrrolo[3,4-b]pyridin-5-one]",85 nM
6,"CC(=O)N1Cc2ccc(OC3CCN(c4nc5c(cc4C)C(=O)NC5)CC3)cc2C1 [Example 294, 2-(4-((2-Acetylisoindolin-5-yl)oxy)piperidin-1-yl)-3-methyl-6,7-dihydro-5H-pyrrolo[3,4-b]pyridin-5-one]",202 nM
7,"CCc1cc2c(nc1N1CC[C@@H](Oc3cnc4c(c3)COC4)[C@H](F)C1)CNC2=O [Example 213A, 2-((3R,4R)-4-((5,7-dihydrofuro[3,4-b]pyridin-3-yl)oxy)-3-fluoropiperidin-1-yl)-3-ethyl-6,7-dihydro-5H-pyrrolo[3,4-b]pyridin-5-one]",126 nM
8,"CCc1cc2c(nc1N1CC[C@H](OCC3(C)CC3)[C@@H](F)C1)CN(CCO)C2=O [Example 266E, 3-ethyl-2-((3S,4S)-3-fluoro-4-((1-methylcyclopropyl)methoxy)piperidin-1-yl)-6-(2-hydroxyethyl)-6,7-dihydro-5H-pyrrolo[3,4-b]pyridin-5-one]",159 nM
9,"Cc1c(N2CCC(Oc3ccc4c(c3)C[C@@H](O)C4)CC2)nc2c(c1C)C(=O)NC2 [Example 334B, (S)-2-(4-((2-hydroxy-2,3-dihydro-1H-inden-5-yl)oxy)piperidin-1-yl)-3,4-dimethyl-6,7-dihydro-5H-pyrrolo[3,4-b]pyridin-5-one]",38 nM
10,"COc1ccc(OC2CCN(c3nc4c(cc3C)C(=O)N(C)[C@@H]4CO)CC2)cn1 (single isomer, unassigned) [Example 273B]",23 nM
11,"Cc1cc2c(nc1N1CCC(Oc3ccccc3)CC1)CN(C)C2=O [Example 240, 3,6-dimethyl-2-(4-phenoxypiperidin-1-yl)-6,7-dihydro-5H-pyrrolo[3,4-b]pyridin-5-one]",40 nM
12,"Cc1c(N2CCC(Oc3ccc4c(c3)COC4)CC2)nc2c(c1C)C(=O)NC2 [Example 328, 2-(4-((1,3-Dihydro-2-benzofuran-5-yl)oxy)piperidin-1-yl)-3,4-dimethyl-6,7-dihydro-5H-pyrrolo[3,4-b]pyridin-5-one]",61 nM
13,"Cc1nc2ccc(O[C@@H]3CCN(c4nc5c(cc4C)C(=O)NC5)C[C@@H]3F)cc2o1 [Example 162, 2-((3S,4R)-3-fluoro-4-((2-methylbenzo[d]oxazol-6-yl)oxy)piperidin-1-yl)-3-methyl-6,7-dihydro-5H-pyrrolo[3,4-b]pyridin-5-one]",51 nM
14,"Cc1cc2c(nc1N1CCC(Oc3ccc4c(c3)COCC4)CC1)[C@@H](CO)N(C)C2=O [Example 349, (S)-7-(hydroxymethyl)-2-(4-(isochroman-7-yloxy)piperidin-1-yl)-3,6-dimethyl-6,7-dihydro-5H-pyrrolo[3,4-b]pyridin-5-one]",22 nM
